Results reported in US9493482B2, “Compounds and methods for preventing or treating sensory hair cell death” (University of Washington, priority 2015, dated 2016).
Counter-ions that a name gives are not always drawn.

Key:
[1] = Auditory Brainstem Response (ABR) Assay; type: in vivo, rats; conditions: Day 24 vs Day 0, FIG. 2
Protocol: Chronic treatment of rats with aminoglycosides (AGs) such as kanamycin or amikacin results in an elevation of ABR thresholds, typically most pronounced at higher frequencies. For rats, hearing is tested at a range of frequencies to determine the intensity of sound (measured in decibels) necessary to evoke a response. As hearing loss becomes more severe, a higher intensity is needed to evoke a response. Each rat serves as its own control; hearing thresholds are determined at each frequency prior to any treatment and then at 2 weeks after a 10-day course of AG treatment (or control drug exposures).
The ABR assay measures short latency field potentials recorded from the scalp of animals that were sedated or noninvasively immobilized. […] For each animal, hearing thresholds, wave 1 latencies and input-output functions for stimulus frequencies at 2, 4, 8, 16 and 32 kHz were measured prior to any treatment to determine the initial sensitivity and dynamic range of hearing, and then repeated at the end of drug treatment and at the end of the experiment (2-weeks after dosing). […]
ABR records were evaluated by a “blinded”, trained experimenter. Hearing loss (Threshold Shift) was determined by subtracting the threshold during pre-treatment (Day 0) from the final ABR threshold (Day 24; two weeks following treatment). […]

[2] = Effect of Amikacin and Compound 9 on Kidney Function: creatinine clearance; type: in vivo, Fischer 344 rats; conditions: FIG. 3
Protocol: (§1) The study consisted of three groups of Fischer 344 rats aged 6 weeks and weighing approximately 200 g at the start of the study. Group 1 consisted of six rats, randomly selected to receive amikacin only, Group 2 consisted of six rats chosen randomly to receive amikacin and compound 9, and Group 3 consisted of three rats, 2 rats given compound 9 and 1 rat given only 0.5% Methylcellulose, the diluent for compound 9. All animals receiving amikacin were given 320 mg/kg subcutaneously (SQ) from a freshly prepared solution of amikacin of 40 mg/mL. The compound 9 formulation was prepared by weighing 13.08 mg of compound 9 dissolved in 12 mL of 0.5% MC in saline with vortexing, sonification and homogenization to obtain a solution with concentration at 12 mg/12 mL=1 mg/mL, dose volume is 5 mL/kg (5 mg/kg). The compound 9 solution was given by oral gavage at a dose of 5 mg/kg.
(§2) One day prior to the onset of dosing, blood was drawn from all rats for serum analysis and all rats were put into metabolic cages for 24 hour urine collection and analysis. All rats were returned to normal cages and allowed to eat and drink ad lib. All rats received their assigned treatments for 10 days and then were returned to metabolic cages for the 10th day. […] The pathologist read the slides, blinded to the group from which they were assigned. […]

kidney = test: Kidney histopathology after amikacin with or without compound 9; type: in vivo, Fischer 344 rats; conditions: amikacin only, section type (longitudinal or cross) not stated, FIG. 4
Protocol: as §1, §2

Compound	Hearing loss (Threshold Shift), high frequency ([1]; AMI/320 (amikacin SC 320 mg/kg/day) + Compound 9 PO 5 mg/kg/day for 10 days)	creatinine clearance (CrCl) post treatment vs baseline ([2]; Group 2: amikacin 320 mg/kg SQ + compound 9 5 mg/kg oral gavage for 10 days)	Hearing loss (Threshold Shift) ([1]; amikacin alone SC 320 mg/kg/day for 10 days)	creatinine clearance (CrCl) post treatment vs baseline ([2]; Group 1: amikacin only 320 mg/kg SQ for 10 days)	kidney histopathology damage score (0-4) (kidney; first stated change (3.9 to 3.6))	kidney histopathology damage score (0-4) (kidney; second stated change (3.9 to 3.1))
CN1[C@H]2CC[C@@H]1c1c(sc(NC(=O)Nc3ccc(Cl)cc3)c1C(N)=O)C2 [Compound 9, (4R,7S)-2-(3-(4-chlorophenyl)ureido)-9-methyl-5,6,7,8-tetrahydro-4H-4,7-epiminocyclohepta[b]thiophene-3-carboxamide hydrochloride]	robust protection	significantly different from baseline				
NCC[C@H](O)C(=O)N[C@@H]1C[C@H](N)[C@@H](O[C@H]2O[C@H](CN)[C@@H](O)[C@H](O)[C@H]2O)[C@H](O)[C@H]1O[C@H]1O[C@H](CO)[C@@H](O)[C@H](N)[C@H]1O [amikacin]			hearing loss	significantly different from baseline	3.9	3.9
